Data as given in the supplement of paper PMC10307832.

Experiments:
Test in all cases: relative viability (nuclei count vs DMSO), 5 days (fraction); higher = more cells survive
[1] = compound: C1CNCCC1C2=CC(=NN2)C3=CC=NC=C3 + CC(=O)Nc1cccc(-n2c(=O)n(C3CC3)c(=O)c3c(Nc4ccc(I)cc4F)n(C)c(=O)c(C)c32)c1 [Trametinib] (partner 0.02 µM)
Summary of the method: (§1)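 After 5 days of treatment, lung cancer cells in 1536-well plates were fixed and stained in a single step (final 0.05% Triton X-100, 1% formaldehyde, 1 ug/ml Hoechst) and their nuclei counted on 4× images. Treatment had been applied by pin tool the day after seeding as one drug alone or as a fixed anchor-drug dose with five library-drug doses (not always all listed) in √10 steps. Relative viability is the nuclei count of treated wells divided by that of vehicle wells, and values are medians of duplicate plates.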

[2] = compound: C1CNCCC1C2=CC(=NN2)C3=CC=NC=C3 + CS(=O)(=O)N1CCN(Cc2cc3nc(-c4cccc5[nH]ncc45)nc(N4CCOCC4)c3s2)CC1 [Pictilisib] (partner 1 µM)
Summary of the method: as §1

[3] = compound: C[C@@H](N)c1ccc(C(=O)Nc2ccnc3[nH]ccc23)cc1 + Cc1nc(NC(=O)N2CCC[C@H]2C(N)=O)sc1-c1ccnc(C(C)(C)C(F)(F)F)c1 [Alpelisib] (partner 2 µM)
Summary of the method: as §1

Tanzisertib + Phenformin = compound: O[C@H]1CC[C@H](Nc2ncc3nc(Nc4c(F)cc(F)cc4F)n([C@H]4CCOC4)c3n2)CC1 [Tanzisertib] + N=C(N)NC(=N)NCCc1ccccc1 [Phenformin] (partner 250 µM)
Summary of the method: as §1

Cell Line | relative viability ([1]; first compound 0.08 µM) | relative viability ([1]; first compound 0.8 µM) | relative viability ([1]; first compound 2.53 µM) | relative viability ([1]; first compound 8 µM) | relative viability ([2]; first compound 0.08 µM) | relative viability ([2]; first compound 0.8 µM) | relative viability ([2]; first compound 2.53 µM) | relative viability ([2]; first compound 8 µM) | relative viability ([3]; first compound 0.04 µM) | relative viability ([3]; first compound 0.1265 µM) | relative viability ([3]; first compound 0.4 µM) | relative viability ([3]; first compound 1.265 µM) | relative viability ([3]; first compound 4 µM) | relative viability (Tanzisertib + Phenformin; first compound 0.08 µM) | relative viability (Tanzisertib + Phenformin; first compound 0.253 µM) | relative viability (Tanzisertib + Phenformin; first compound 0.8 µM) | relative viability (Tanzisertib + Phenformin; first compound 2.53 µM) | relative viability (Tanzisertib + Phenformin; first compound 8 µM)
201T | 0.712 | 0.731 | 0.753 | 0.675 | 0.724 | 0.664 | 0.7 | 0.681 | 1.06 | 1.01 | 1.01 | 1.06 | 1.24 | 0.454 | 0.501 | 0.477 | 0.459 | 0.386
A549 | – | – | – | – | 0.509 | 0.654 | 0.575 | 0.548 | 0.877 | 0.834 | 0.846 | 0.751 | 0.559 | 0.236 | 0.153 | 0.183 | 0.309 | 0.168
A-427 | 0.748 | 0.857 | 0.779 | 0.874 | 0.707 | 0.891 | 0.685 | 0.8 | 1.12 | 1.13 | 1.08 | – | 1.07 | 0.394 | 0.411 | 0.413 | 0.326 | 0.22
ABC-1 | – | – | – | – | 0.735 | 0.812 | 0.865 | 0.869 | 1.22 | 1.04 | 1.37 | 1.58 | 0.809 | 0.242 | 0.251 | 0.226 | 0.211 | 0.218
BEN | 0.769 | 0.936 | 1.05 | 1.02 | 0.518 | 0.587 | 0.555 | 0.722 | 1.07 | 0.995 | 1.09 | 1.25 | 0.731 | 0.254 | 0.235 | 0.275 | 0.266 | 0.255
CAL-12T | 0.351 | 0.363 | 0.363 | 0.419 | 0.619 | 0.549 | 0.481 | 0.616 | 1.37 | 1.36 | 1.43 | 1.54 | 0.903 | 0.517 | 0.566 | 0.625 | 0.628 | 0.556
COR-L23 | 0.583 | 0.62 | 0.678 | 0.608 | 0.824 | 0.903 | 0.924 | 0.832 | 0.699 | 0.788 | 0.921 | 0.801 | 0.381 | 0.479 | 0.489 | 0.432 | 0.483 | 0.475
COR-L 105 | 0.42 | 0.501 | 0.427 | 0.47 | 0.421 | 0.429 | 0.398 | 0.396 | 0.876 | 1.07 | 0.918 | 0.957 | 0.65 | 0.467 | 0.465 | 0.449 | 0.473 | 0.327
Calu-6 | – | – | – | – | 0.843 | 1.02 | 0.971 | 0.904 | 0.958 | 1.01 | 0.904 | 0.765 | 0.797 | – | – | – | – | –
ChaGo-K-1 | 0.916 | 0.85 | 0.897 | 0.807 | 0.51 | 0.978 | 0.431 | 0.681 | – | – | – | – | – | 0.547 | 0.545 | 0.447 | 0.493 | 0.482
EBC-1 | – | – | – | – | 0.447 | 0.425 | 0.364 | 0.409 | 0.97 | 0.775 | 0.797 | 0.771 | 0.93 | – | – | – | – | –
EKVX | 0.402 | – | 0.366 | 0.445 | 0.42 | 0.516 | 0.42 | 0.447 | 0.897 | 0.95 | 0.887 | 0.895 | 0.748 | 0.227 | 0.244 | 0.253 | 0.227 | 0.205
EMC-BAC-2 | – | 0.946 | 0.994 | 0.991 | 0.449 | 0.613 | 0.544 | 0.517 | 0.772 | 0.723 | 0.696 | 0.74 | 0.54 | 0.51 | 0.507 | 0.528 | 0.51 | 0.502
EPLC-272H | 0.283 | 0.278 | 0.319 | 0.344 | 0.384 | 0.361 | 0.285 | 0.337 | 1.1 | 0.961 | 1.05 | – | 1.1 | 0.329 | 0.311 | 0.295 | 0.327 | 0.302
H3255 | 0.532 | – | 0.689 | 0.736 | 0.469 | 0.477 | 0.511 | 0.442 | 0.774 | 0.742 | 0.806 | 0.716 | 0.673 | 0.413 | 0.371 | 0.387 | 0.349 | 0.231
HARA | 0.616 | 0.709 | 0.762 | 1.09 | 0.419 | 0.421 | 0.437 | 0.402 | 0.813 | 0.928 | 0.914 | 0.796 | 0.598 | 0.541 | 0.401 | 0.451 | 0.41 | 0.333
HCC-15 | 0.421 | 0.387 | 0.391 | 0.4 | 0.738 | 0.772 | 0.722 | 0.75 | 0.969 | 0.871 | 0.996 | – | 0.917 | 0.576 | 0.487 | 0.509 | 0.467 | 0.423
HCC-44 | 1.09 | 1.06 | 1.04 | 1.05 | 0.585 | 0.648 | 0.716 | 0.593 | 0.886 | 0.736 | 0.91 | 0.847 | 0.588 | 0.171 | 0.297 | 0.269 | 0.306 | 0.0849
HCC-78 | 0.742 | – | 0.821 | 0.757 | 0.21 | – | 0.189 | 0.223 | 0.505 | 0.354 | 0.483 | 0.577 | 0.33 | 0.739 | 0.848 | 0.782 | 0.597 | 0.512
HCC-366 | 0.292 | 0.428 | 0.393 | 0.337 | 0.162 | 0.127 | 0.11 | 0.182 | 0.41 | 0.398 | 0.581 | – | 0.329 | 0.671 | 0.599 | 0.651 | 0.681 | 0.646
